Structures can show the parent of a compound that is named as a salt.
These compounds were tested against T1, rat histamine H3 receptors (Rattus norvegicus, UniProt Q9QYN8) (assay: Rat Histamine H3 Receptor Binding). Conditions: rat frontal brain membranes; radioligand 3H-N-methyl-histamine 1 nM; 1 hour incubation; read-out: rH3 Ki.
T1 construct: Frozen rat frontal brain or frozen human post-mortem frontal brain is homogenized; from tissue; host or cells: rat frontal brain membranes
Method: The in vitro affinity of the compounds in the present invention at the rat or human histamine H3 receptors can be determined according to the following procedure. Frozen rat frontal brain or frozen human post-mortem frontal brain is homogenized in 20 volumes of cold 50 mM Tris HCl containing 2 mM MgCl2 (pH to 7.4 at 4° C.). The homogenate is then centrifuged at 45,000 G for 10 minutes. The supernatant is decanted and the membrane pellet resuspended by Polytron in cold 50 mM Tris HCl containing 2 mM MgCl2 (pH to 7.4 at 4° C.) and centrifuged again. The final pellet is resuspended in 50 mM Tris HCl containing 2 mM MgCl2 (pH to 7.4 at 25° C.) at a concentration of 12 mg/mL. Dilutions of compounds are made in 10% DMSO/50 mM Tris buffer (pH 7.4) (at 10× final concentration, so that the final DMSO concentration is 1%). Incubations are initiated by the addition of membranes (200 microliters) to 96 well V-bottom polypropylene plates containing 25 microliters of drug dilutions and 25 microliters of radioligand (1 nM final concentration 3H—N-methyl-histamine). After a 1 hour incubation, assay samples are rapidly filtered through Whatman GF/B filters and rinsed with ice-cold 50 mM Tris buffer (pH 7.4) using a Skatron cell harvester. Radioactivity is quantified using a BetaPlate scintillation counter. The percent inhibition of specific binding can then be calculated.

T1 sequence (Q9QYN8 whole entry): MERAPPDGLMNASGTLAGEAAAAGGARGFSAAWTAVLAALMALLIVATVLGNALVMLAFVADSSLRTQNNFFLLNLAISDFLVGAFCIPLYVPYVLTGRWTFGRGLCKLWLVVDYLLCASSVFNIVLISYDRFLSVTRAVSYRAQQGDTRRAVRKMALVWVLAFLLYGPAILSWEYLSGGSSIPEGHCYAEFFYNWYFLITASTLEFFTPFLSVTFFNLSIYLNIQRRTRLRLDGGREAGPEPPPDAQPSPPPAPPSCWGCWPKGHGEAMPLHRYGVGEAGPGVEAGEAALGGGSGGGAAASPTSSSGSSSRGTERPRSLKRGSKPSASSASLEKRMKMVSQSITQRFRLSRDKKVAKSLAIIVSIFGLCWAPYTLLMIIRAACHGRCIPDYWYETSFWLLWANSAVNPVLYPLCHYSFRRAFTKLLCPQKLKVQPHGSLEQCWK

Structure (SMILES) | Ki [µM]
O=C(C1CC(F)(c2ccc(CN3CCCC3)c(F)c2)C1)N1CCCC1 (stereo not drawn) [Example 9, N-{2-fluoro-4-[1-fluoro-3-(pyrrolidin-1-ylcarbonyl)cyclobutyl]benzyl}-pyrrolidine hydrochloride] | 0.0189
CC(C)CNC(=O)C1CC(F)(c2cc(Cl)c(CN3CCCC3)cc2F)C1 (mixture of isomers) [Example 11, 3-(5-Chloro-2-fluoro-4-pyrrolidin-1-ylmethyl-phenyl)-3-fluoro-cyclobutanecarboxylic acid isobutyl-amide] | 0.0241
CCNC(=O)C1CC(c2ccc(CN3CCCC3)c(F)c2)C1 (stereo not drawn) [Example 13, 3-(3-Fluoro-4-pyrrolidin-1-ylmethyl-phenyl)-cyclobutanecarboxylic acid ethylamide] | 0.0101
CC(C)CNC(=O)C1CC(F)(c2ccc(CN3CCCC3)c(F)c2)C1 (single isomer, unassigned) [Example 55, 3-Fluoro-3-(3-fluoro-4-pyrrolidin-1-ylmethyl-phenyl)-cyclobutanecarboxylic acid isobutyl-amide] | 0.0101
CCNC(=O)C1CC(F)(c2ccc(CN3CCCC3)c(F)c2)C1 (stereo not drawn) [Example 16, 3-Fluoro-3-(3-fluoro-4-pyrrolidin-1-ylmethyl-phenyl)-cyclobutanecarboxylic acid ethylamide] | 0.0207
CCNC(=O)C1CC(F)(c2ccc(CN3CCC[C@@H]3C)c(F)c2)C1 (stereo partly drawn) [Example 59, 3-Fluoro-3-[3-fluoro-4-((S)-2-methyl-pyrrolidin-1-ylmethyl)-phenyl]-cyclobutanecarboxylic acid ethylamide] | 0.0214
CCN(C)C(=O)C1CC(F)(c2ccc(CN3CCCC3)c(F)c2)C1 (stereo not drawn) [Example 23, 3-Fluoro-3-(3-fluoro-4-pyrrolidin-1-ylmethyl-phenyl)-cyclobutanecarboxylic acid ethyl-methyl-amide] | 0.0288
CN(CC1CC1)C(=O)C1CC(F)(c2ccc(CN3CCCC3)c(Cl)c2)C1 (mixture of isomers) [Example 50, 3-(3-Chloro-4-pyrrolidin-1-ylmethyl-phenyl)-3-fluoro-cyclobutanecarboxylic acid cyclopropylmethyl-methyl-amide] | 0.0323
O=C(NCC1CC1)C1CC(F)(c2ccc(CN3CCCC3)c(Cl)c2)C1 (stereo not drawn) [Example 46, 3-(3-Chloro-4-pyrrolidin-1-ylmethyl-phenyl)-3-fluoro-cyclobutanecarboxylic acid cyclopropylmethyl-amide] | 0.0109

— patent US8389743B2, “Histamine-3 receptor antagonists” (Pfizer Inc., priority 2005, dated 2013)
